What was measured:
Assay in all cases: relative viability (nuclei count vs DMSO), 5 days (fraction); higher = more cells survive
[1] = system: A549
How it was run: (§1)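 Lung cancer cell lines in 1536-well plates got either a single drug or a fixed anchor-drug dose together with five library-drug doses (not always all listed) in √10 steps, by pin tool, on the day after seeding. Nuclei were counted after 5 days, and relative viability is the treated-to-vehicle ratio of nuclei counts. Values are medians of duplicate plates.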

[2] = system: Calu-6
How it was run: as §1

[3] = system: EBC-1
How it was run: as §1

[4] = system: HCC-78
How it was run: as §1

[5] = system: IA-LM
How it was run: as §1

[6] = system: NCI-H1299
How it was run: as §1

[7] = system: NCI-H1703
How it was run: as §1

[8] = system: NCI-H2009
How it was run: as §1

[9] = system: NCI-H358
How it was run: as §1

[10] = system: NCI-H460
How it was run: as §1

[11] = system: NCI-H661
How it was run: as §1

With COc1cc2nccc(Oc3ccc(NC(=O)Nc4cc(C)on4)c(Cl)c3)c2cc1OC [Tivozanib] + Cc1nc(NC(=O)N2CCC[C@H]2C(N)=O)sc1-c1ccnc(C(C)(C)C(F)(F)F)c1 [Alpelisib] (partner 2 µM) the relative viability ([1]; first compound 0.005 µM) was 0.715, the relative viability ([1]; first compound 0.01581 µM) was 0.754 and the relative viability ([1]; first compound 0.05 µM) was 0.793. The relative viability ([1]; first compound 0.1581 µM) was 0.612, the relative viability ([1]; first compound 0.5 µM) was 0.774 and the relative viability ([2]; first compound 0.005 µM) was 0.993. It also gave a relative viability ([2]; first compound 0.01581 µM) of 0.969, a relative viability ([2]; first compound 0.05 µM) of 0.943 and a relative viability ([2]; first compound 0.1581 µM) of 0.863. It also gave a relative viability ([2]; first compound 0.5 µM) of 0.874, a relative viability ([3]; first compound 0.005 µM) of 0.79 and a relative viability ([3]; first compound 0.01581 µM) of 0.924. For the same compound, the relative viability ([3]; first compound 0.05 µM) was 0.811, the relative viability ([3]; first compound 0.1581 µM) was 0.59 and the relative viability ([3]; first compound 0.5 µM) was 0.74. The relative viability ([4]; first compound 0.005 µM) was 0.327, the relative viability ([4]; first compound 0.01581 µM) was 0.347 and the relative viability ([4]; first compound 0.05 µM) was 0.315. For the same compound, the relative viability ([4]; first compound 0.1581 µM) was 0.248, the relative viability ([4]; first compound 0.5 µM) was 0.316 and the relative viability ([5]; first compound 0.005 µM) was 0.659. It also gave a relative viability ([5]; first compound 0.01581 µM) of 0.623, a relative viability ([5]; first compound 0.05 µM) of 0.718 and a relative viability ([5]; first compound 0.1581 µM) of 0.597. The relative viability ([5]; first compound 0.5 µM) was 0.531, the relative viability ([6]; first compound 0.005 µM) was 1.09 and the relative viability ([6]; first compound 0.01581 µM) was 1.11. For the same compound, the relative viability ([6]; first compound 0.05 µM) was 1.08, the relative viability ([6]; first compound 0.1581 µM) was 1.13 and the relative viability ([6]; first compound 0.5 µM) was 1.06. It also gave a relative viability ([7]; first compound 0.005 µM) of 0.262, a relative viability ([7]; first compound 0.01581 µM) of 0.179 and a relative viability ([7]; first compound 0.05 µM) of 0.201. The relative viability ([7]; first compound 0.1581 µM) was 0.155, the relative viability ([7]; first compound 0.5 µM) was 0.203 and the relative viability ([8]; first compound 0.005 µM) was 1.16. It also gave a relative viability ([8]; first compound 0.01581 µM) of 1.08, a relative viability ([8]; first compound 0.05 µM) of 1.29 and a relative viability ([8]; first compound 0.1581 µM) of 1.22. It also gave a relative viability ([8]; first compound 0.5 µM) of 1.19, a relative viability ([9]; first compound 0.005 µM) of 0.736 and a relative viability ([9]; first compound 0.01581 µM) of 0.803. For the same compound, the relative viability ([9]; first compound 0.05 µM) was 0.771, the relative viability ([9]; first compound 0.1581 µM) was 0.73 and the relative viability ([9]; first compound 0.5 µM) was 0.94. The relative viability ([10]; first compound 0.005 µM) was 0.483, the relative viability ([10]; first compound 0.01581 µM) was 0.422 and the relative viability ([10]; first compound 0.05 µM) was 0.454. The relative viability ([10]; first compound 0.1581 µM) was 0.609, the relative viability ([10]; first compound 0.5 µM) was 0.543 and the relative viability ([11]; first compound 0.005 µM) was 0.52. It also gave a relative viability ([11]; first compound 0.01581 µM) of 0.713, a relative viability ([11]; first compound 0.05 µM) of 0.609 and a relative viability ([11]; first compound 0.1581 µM) of 0.302. The relative viability ([11]; first compound 0.5 µM) was 0.525.
In the case of Cc1sc2c(c1C)C(c1ccc(Cl)cc1)=N[C@@H](CC(=O)OC(C)(C)C)c1nnc(C)n1-2 [JQ1] + C[C@]1(O)C[C@@H](c2nc(-c3ccc4ccc(-c5ccccc5)nc4c3)c3c(N)nccn32)C1 [Linsitinib] (partner 1 µM), the relative viability ([1]; first compound 0.04 µM) is reported as 0.613, the relative viability ([1]; first compound 0.1265 µM) is reported as 0.534 and the relative viability ([1]; first compound 0.4 µM) is reported as 0.561. For the same compound, the relative viability ([1]; first compound 1.265 µM) was 0.314, the relative viability ([1]; first compound 4 µM) was 0.226 and the relative viability ([2]; first compound 0.04 µM) was 0.931. It also gave a relative viability ([2]; first compound 0.1265 µM) of 0.793, a relative viability ([2]; first compound 0.4 µM) of 0.905 and a relative viability ([2]; first compound 1.265 µM) of 0.639. For the same compound, the relative viability ([2]; first compound 4 µM) was 0.313, the relative viability ([3]; first compound 0.04 µM) was 0.8 and the relative viability ([3]; first compound 0.1265 µM) was 0.523. The relative viability ([3]; first compound 0.4 µM) was 0.332, the relative viability ([3]; first compound 1.265 µM) was 0.112 and the relative viability ([3]; first compound 4 µM) was 0.112. For the same compound, the relative viability ([4]; first compound 0.04 µM) was 0.536, the relative viability ([4]; first compound 0.1265 µM) was 0.438 and the relative viability ([4]; first compound 0.4 µM) was 0.403. It also gave a relative viability ([4]; first compound 1.265 µM) of 0.255, a relative viability ([4]; first compound 4 µM) of 0.249 and a relative viability ([5]; first compound 0.04 µM) of 0.406. For the same compound, the relative viability ([5]; first compound 0.1265 µM) was 0.098, the relative viability ([5]; first compound 0.4 µM) was 0.153 and the relative viability ([5]; first compound 1.265 µM) was 0.106. The relative viability ([5]; first compound 4 µM) was 0.0793, the relative viability ([6]; first compound 0.04 µM) was 0.97 and the relative viability ([6]; first compound 0.1265 µM) was 0.781. It also gave a relative viability ([6]; first compound 0.4 µM) of 0.883, a relative viability ([6]; first compound 1.265 µM) of 0.36 and a relative viability ([6]; first compound 4 µM) of 0.238. For the same compound, the relative viability ([7]; first compound 0.04 µM) was 0.95, the relative viability ([7]; first compound 0.4 µM) was 0.404 and the relative viability ([7]; first compound 1.265 µM) was 0.33. For the same compound, the relative viability ([7]; first compound 4 µM) was 0.396, the relative viability ([8]; first compound 0.04 µM) was 1.13 and the relative viability ([8]; first compound 0.1265 µM) was 0.995. For the same compound, the relative viability ([8]; first compound 0.4 µM) was 0.724, the relative viability ([8]; first compound 1.265 µM) was 0.279 and the relative viability ([8]; first compound 4 µM) was 0.263. It also gave a relative viability ([9]; first compound 0.04 µM) of 0.645, a relative viability ([9]; first compound 0.1265 µM) of 0.829 and a relative viability ([9]; first compound 0.4 µM) of 0.715. It also gave a relative viability ([9]; first compound 1.265 µM) of 0.442, a relative viability ([9]; first compound 4 µM) of 0.45 and a relative viability ([10]; first compound 0.04 µM) of 0.661. It also gave a relative viability ([10]; first compound 0.1265 µM) of 0.54, a relative viability ([10]; first compound 0.4 µM) of 0.278 and a relative viability ([10]; first compound 1.265 µM) of 0.0494. For the same compound, the relative viability ([10]; first compound 4 µM) was 0.0357, the relative viability ([11]; first compound 0.04 µM) was 0.635 and the relative viability ([11]; first compound 0.1265 µM) was 0.512. For the same compound, the relative viability ([11]; first compound 0.4 µM) was 0.391, the relative viability ([11]; first compound 1.265 µM) was 0.305 and the relative viability ([11]; first compound 4 µM) was 0.352.
